Data: patent publication US20180251434A1, “ANTIBACTERIAL HETEROCYCLIC DERIVATIVES” (priority 2015, published 2018)
≈ marks a conversion by molar mass, not a printed value. Read-outs that look alike come from different tables or passages of the source.

What was measured:
Assay type in all cases: cell-based
E. coli ATCC25922 = assay: Bacterial growth minimal inhibitory concentration (broth microdilution, CLSI M7-A7); settings: quinolone-sensitive strain; for MIC: Escherichia coli, ATCC25922, cation-adjusted Mueller Hinton Broth; for MIC for E. coli ATCC25922: cation-adjusted Mueller Hinton Broth
Method: (§1) Minimal Inhibitory Concentrations (MICs; mg/L) were determined in cation-adjusted MuellerHinton Broth by a microdilution method following the description given in “Methods for Dilution Antimicrobial Susceptibility Tests for Bacteria that grow Aerobically”, Approved standard, 7th ed., Clinical and Laboratory Standards Institute (CLSI) Document M7-A7, Wayne, Pa., USA (2006).
(§2) All Example compounds were tested against several Gram-positive and Gram-negative bacteria. […] K pneumoniae A-651 is a multiply-resistant strain (in particular quinolone-resistant), while E. coli ATCC25922 and P. aeruginosa ATCC27853 are quinolone-sensitive strains.

P. aeruginosa ATCC27853 = assay: as above; settings: quinolone-sensitive strain; for MIC: Pseudomonas aeruginosa, ATCC27853, cation-adjusted Mueller Hinton Broth; for MIC for P. aeruginosa ATCC27853: cation-adjusted Mueller Hinton Broth
Method: as §1, §2

K. Pneumoniae A-651 = assay: as above; settings: cation-adjusted Mueller Hinton Broth, multiply-resistant (quinolone-resistant) strain; for MIC: Klebsiella pneumoniae
Method: as §1, §2

wild-type E. coli A-1261 = assay: MIC with or without alkaline phosphatase or esterase (prodrug activation); settings: Escherichia coli
Method: Minimal Inhibitory Concentrations (MICs; mg/L) were determined in cation-adjusted MuellerHinton Broth by a microdilution method following the description given in “Methods for Dilution Antimicrobial Susceptibility Tests for Bacteria that grow Aerobically”, Approved standard, 7th ed., Clinical and Laboratory Standards Institute (CLSI) Document M7-A7, Wayne, Pa., USA (2006). The compounds of Examples 5 and 12 were tested against wild-type E. coli A-1261 in the absence of alkaline phosphatase or esterase, in the presence of an alkaline phosphatase, and in the presence of an esterase. The corresponding antibacterial test results are given in Table 2 hereafter (MICs in mg/L).

[1] = alkaline phosphatase 2 i.U./mL, read-out: MIC for E. coli A-1261 In the presence of an alkaline phosphatase (2 i.U./mL)
[2] = esterase 10 i.U./mL, read-out: MIC for E. coli A-1261 In the presence of an esterase (10 i.U./mL)
[3] = no alkaline phosphatase or esterase, read-out: MIC for E. coli A-1261 In the absence of alkaline phosphatase or esterase

`C[C@@](CCn1c(=O)sc2cc(C#CC#C[C@H]3C[C@]3(F)CO)ccc21)(C(=O)NO)S(C)(=O)=O` [Example 11, (2R)-4-(6-(((1R,2R)-2-fluoro-2-(hydroxymethyl)cyclopropyl)buta-1,3-diyn-1-yl)-2-oxobenzo[d]thiazol-3(2H)-yl)-N-hydroxy-2-methyl-2-(methylsulfonyl)butanamide] showed an MIC (E. coli ATCC25922) of 0.063 µg/mL (≈ 0.131 µM), an MIC (P. aeruginosa ATCC27853) of 1 µg/mL (≈ 2.08 µM) and an MIC (K. Pneumoniae A-651) of 0.25 µg/mL (≈ 0.52 µM).

In the case of `CNC1(C#CC#Cc2ccc3c(c2)oc(=O)n3CC[C@](C)(C(=O)NO)S(C)(=O)=O)CC1` [Example 4, (2R)—N-hydroxy-2-methyl-4-(6-((1-(methylamino)cyclopropyl)buta-1,3-diyn-1-yl)-2-oxobenzo[d]oxazol-3(2H)-yl)-2-(methylsulfonyl)butanamide], the MIC (E. coli ATCC25922) is reported as 0.25 µg/mL (≈ 0.561 µM), the MIC (P. aeruginosa ATCC27853) is reported as 1 µg/mL (≈ 2.24 µM) and the MIC (K. Pneumoniae A-651) is reported as 0.25 µg/mL (≈ 0.561 µM).

With `CC(CCn1c(=O)oc2cc(C#CC#CC3(O)COC3)ccc21)(C(=O)NO)S(C)(=O)=O` (racemic) [RE2, (2RS)—N-hydroxy-4-(6-((3-hydroxyoxetan-3-yl)buta-1,3-diyn-1-yl)-2-oxobenzo[d]oxazol-3(2H)-yl)-2-methyl-2-(methylsulfonyl)butanamide] the MIC (E. coli ATCC25922) was 4 µg/mL (≈ 8.92 µM), the MIC (P. aeruginosa ATCC27853) was over 8 µg/mL and the MIC (K. Pneumoniae A-651) was 8 µg/mL (≈ 17.8 µM).

For `C[C@@](CCn1c(=O)oc2cc(C#CC#CC3(N)CC3)ccc21)(C(=O)NO)S(C)(=O)=O` [Example 8, (2R)-4-(6-((1-aminocyclopropyl)buta-1,3-diyn-1-yl)-2-oxobenzo[d]oxazol-3(2H)-yl)-N-hydroxy-2-methyl-2-(methylsulfonyl)butanamide], the MIC (E. coli ATCC25922) was 0.125 µg/mL (≈ 0.29 µM), the MIC (P. aeruginosa ATCC27853) was 1 µg/mL (≈ 2.32 µM) and the MIC (K. Pneumoniae A-651) was 0.25 µg/mL (≈ 0.579 µM).

`CN1CC(C#CC#Cc2ccc3c(c2)sc(=O)n3CC[C@](C)(C(=O)NO)S(C)(=O)=O)C1` [Example 10, (2R)—N-hydroxy-2-methyl-4-(6-((1-methylazetidin-3-yl)buta-1,3-diyn-1-yl)-2-oxobenzo[d]thiazol-3(2H)-yl)-2-(methylsulfonyl)butanamide] was tested, and the MIC (E. coli ATCC25922) was 0.5 µg/mL (≈ 1.08 µM), the MIC (P. aeruginosa ATCC27853) was 2 µg/mL (≈ 4.33 µM) and the MIC (K. Pneumoniae A-651) was 1 µg/mL (≈ 2.17 µM).

For `C[C@@](CCn1c(=O)sc2cc(C#Cc3ccc(CO)cc3)ccc21)(C(=O)NO)S(C)(=O)=O` [Example 13], the “MIC for E. coli ATCC25922” value (E. coli ATCC25922) was 0.125 µg/mL, the “MIC for P. aeruginosa ATCC27853” value (P. aeruginosa ATCC27853) was 8 µg/mL and the “MIC for K. Pneumoniae A-651” value (K. Pneumoniae A-651) was 0.5 µg/mL.

For `C[C@@](CCn1c(=O)oc2cc(C#Cc3ccc(CN4CCOCC4)cc3)ccc21)(C(=O)NO)S(C)(=O)=O` [Example 3], the “MIC for E. coli ATCC25922” value (E. coli ATCC25922) was 2 µg/mL, the “MIC for P. aeruginosa ATCC27853” value (P. aeruginosa ATCC27853) was over 8 µg/mL and the “MIC for K. Pneumoniae A-651” value (K. Pneumoniae A-651) was 2 µg/mL.

In the case of `C[C@@](CCn1c(=O)oc2cc(C#CC#CC3(CO)CC3)ccc21)(C(=O)NO)S(C)(=O)=O` [Example 2, (2R)—N-hydroxy-4-(6-((1-(hydroxymethyl)cyclopropyl)buta4,3-diyn-1-yl)-2-oxobenzo[d]oxazol-3(2H)-yl)-2-methyl-2-(methylsulfonyl)butanamide], the “MIC for E. coli ATCC25922” value (E. coli ATCC25922) is reported as 0.25 µg/mL, the “MIC for P. aeruginosa ATCC27853” value (P. aeruginosa ATCC27853) is reported as 1 µg/mL and the “MIC for K. Pneumoniae A-651” value (K. Pneumoniae A-651) is reported as 1 µg/mL.

`C[C@@](CCn1c(=O)oc2cc(C#CC#C[C@H]3C[C@]3(F)CO)ccc21)(C(=O)NO)S(C)(=O)=O` [Example 6, (2R)-4-(6-(((1R,2R)-2-fluoro-2-(hydroxymethyl)cyclopropyl)buta-1,3-diyn-1-yl)-2-oxobenzo[d]oxazol-3(2H)-yl)-N-hydroxy-2-methyl-2-(methylsulfonyl)butanamide] showed an MIC (E. coli ATCC25922) of 0.125 µg/mL (≈ 0.269 µM), an MIC (P. aeruginosa ATCC27853) of 0.5 µg/mL (≈ 1.08 µM) and an MIC (K. Pneumoniae A-651) of 0.25 µg/mL (≈ 0.538 µM).

With `COc1ccc(-c2ccc3c(c2)oc(=O)n3CCC(C)(C(=O)NO)S(C)(=O)=O)c(F)c1` (racemic) [RE1, (2RS)-4-(6-(2-fluoro-4-methoxyphenyl)-2-oxobenzo[d]oxazol-3(2H)-yl)-N-hydroxy-2-methyl-2-(methylsulfonyl)butanamide] the MIC (E. coli ATCC25922) was 2 µg/mL (≈ 4.42 µM), the MIC (P. aeruginosa ATCC27853) was over 8 µg/mL and the MIC (K. Pneumoniae A-651) was 1 µg/mL (≈ 2.21 µM).

`CN1CC(C#CC#Cc2ccc3c(c2)oc(=O)n3CC[C@](C)(C(=O)NO)S(C)(=O)=O)C1` [Example 9, (2R)—N-hydroxy-2-methyl-4-(6-((1-methylazetidin-3-yl)buta-1,3-diyn-1-yl)-2-oxobenzo[d]oxazol-3(2H)-yl)-2-(methylsulfonyl)butanamide] was tested, and the MIC (E. coli ATCC25922) was 1 µg/mL (≈ 2.24 µM), the MIC (P. aeruginosa ATCC27853) was 1 µg/mL (≈ 2.24 µM) and the MIC (K. Pneumoniae A-651) was 0.5 µg/mL (≈ 1.12 µM).

In the case of `C[C@@](CCn1c(=O)oc2cc(C#Cc3ccc(CO)cc3)ccc21)(C(=O)NO)S(C)(=O)=O` [Example 1], the “MIC for E. coli ATCC25922” value (E. coli ATCC25922) is reported as 0.25 µg/mL, the “MIC for P. aeruginosa ATCC27853” value (P. aeruginosa ATCC27853) is reported as 4 µg/mL and the “MIC for K. Pneumoniae A-651” value (K. Pneumoniae A-651) is reported as 0.5 µg/mL.

`C[C@@](CCn1c(=O)oc2cc(C#CC#CCOC(=O)N3CC(O)C3)ccc21)(C(=O)NO)S(C)(=O)=O` [Example 7, (3R)-5-(3-(4-(hydroxyamino)-3-methyl-3-(methylsulfonyl)-4-oxobutyl)-2-oxo-2,3-dihydrobenzo[d]oxazol-6-yl)penta-2,4-diyn-1-yl 3-hydroxyazetidine-1-carboxylate] was tested, and the MIC (E. coli ATCC25922) was 0.5 µg/mL (≈ 0.989 µM), the MIC (P. aeruginosa ATCC27853) was 1 µg/mL (≈ 1.98 µM) and the MIC (K. Pneumoniae A-651) was 1 µg/mL (≈ 1.98 µM).

Work on `C[C@@](CCn1c(=O)oc2cc(C#CC#C[C@H]3C[C@@H]3COP(=O)(O)O)ccc21)(C(=O)NO)S(C)(=O)=O` [Example 12, ((1S,2S)-2-((3-((3R)-4-(hydroxyamino)-3-methyl-3-(methylsulfonyl)-4-oxobutyl)-2-oxo-2,3-dihydrobenzo[d]oxazol-6-yl)buta-1,3-diyn-1-yl)cyclopropyl)methyl dihydrogen phosphate] yielded an MIC (wild-type E. coli A-1261; [1]) of 0.125 µg/mL, an MIC (wild-type E. coli A-1261; [2]) of over 8 µg/mL and an MIC (wild-type E. coli A-1261; [3]) of over 8 µg/mL.

In the case of `C[C@@](CCn1c(=O)oc2cc(C#CC#C[C@H]3C[C@@H]3CO)ccc21)(C(=O)NO)S(C)(=O)=O` [Example 5, (2R)—N-hydroxy-4-(6-(((1S,2S)-2-(hydroxymethyl)cyclopropyl)buta-1,3-diyn-1-yl)-2-oxobenzo[d]oxazol-3 (2H)-yl)-2-methyl-2-(methylsulfonyl)butanamide], the MIC (E. coli ATCC25922) is reported as 0.063 µg/mL (≈ 0.141 µM), the MIC (P. aeruginosa ATCC27853) is reported as 0.5 µg/mL (≈ 1.12 µM) and the MIC (K. Pneumoniae A-651) is reported as 0.125 µg/mL (≈ 0.28 µM). The MIC (wild-type E. coli A-1261; [1]) was 0.063 µg/mL, the MIC (wild-type E. coli A-1261; [2]) was 0.063 µg/mL and the MIC (wild-type E. coli A-1261; [3]) was 0.063 µg/mL (≈ 0.141 µM).
